Results from patent publication US20090130194A1, “Methods of Treating Cancer with High Potency Lipid-Based Platinum Compound Formulations Administered Intravenously” (Transave, Inc., priority 2005, published 2009).

What was measured:
[1] = Pharmacokinetics and organ distribution of ip and iv injected L-CDDP and CDDP (platinum by ICP-MS); assay type: in vivo, ICR mice; conditions: 8 mg/kg
Protocol: Pharmacokinetics and organ distribution in animals of ip and iv injected lipid-complexed cisplatin and cisplatin (Part II). Sixty ICR mice (female, 7 weeks old) were divided into 4 groups. They received intraperitoneal or intravenous injection of L-CDDP or CDDP, separately. The dose was 12 mg/kg for ip L-CDDP and 8 mg/kg for the rest of treatment groups. At each designed time point, three to four mice were anaesthetized with 70 mg/kg of Nembutal ip (e.g., 3, 20, and 40 min, and 2, 8, 24, 48, and 72 h). […] Organs including liver, lung, and spleen were resected from the mice. The organ samples were homogenized in distilled water (4-fold of the sample weight) and digested with nitric acid. The platinum concentration in each sample was measured by Inductively Coupled Plasma-Mass Spectrometer (ICP-MS). The pharmacokinetics profiles (FIGS. 4, 5, and 6, all Y-axes are concentration of μg platinum in one gram of tissue or fluid per mg of injected dose) and parameters (Table 2) of each formulation were simulated and calculated.

[2] = Nephrotoxicity: blood urea nitrogen (BUN); assay type: in vivo; conditions: MTD
Source text: Nephrotoxicity. ICR mice, 7 weeks old, female, were divided into 4 groups with 3 to 4 mice in each. […] Four days after the injection, the mice were euthanized with Nembutal ip. The blood was drawn and the serum was isolated. The blood urea nitrogen (BUN) was quantitatively measured with a calorimetric method at Antech Diagnostics. Organs including duodenum, heart, kidney, liver, lung, and spleen were resected from the mice and fixed with 10% buffered Formalin. The fixed tissues were processed with standard procedure for H and E staining. A pathology expert Dr. Carman Tornos at the Memorial Sloan-Kettering Cancer Center examined kidney tissues and gave a toxicity grade to each kidney tissue sample. The grading was based on the general pathology guidelines for kidney toxicity.

For `N.N.[Cl][Pt][Cl]` [CDDP, cis diamminedichloroplatinum], the “AUC, Liver” value [1] was 19.96 µg·h/g/µg, the “AUC, Lung” value [1] was 5.58 µg·h/g/µg and the “AUC, Spleen” value [1] was 8.11 µg·h/g/µg. For the same compound, the “Cmax, Liver” value [1] was 0.74 µg/g/µg, the “Cmax, Lung” value [1] was 0.28 µg/g/µg and the “BUN level change (in words)” value ([2]; either route) was “increase”. The “BUN level increase compared with normal controls” value ([2]; ip, 4 days after injection, p=0.04) was 2.1 fold.
